Data on 10 compounds can be found in publication PMC12096176 (RSC Chemical Biology, 2025).

Test [1] concerns Swiss Webster mice. The experiment in a line: Warm-water tail immersion assay, antagonism of morphine antinociception. The settings on record: single dose 10 mg kg^−1 s.c. in the presence of morphine 10 mg kg^−1 s.c.
The target in another test is KOR (Homo sapiens, UniProt P41145). The format is binding.
The next test has as its target DOR (Homo sapiens, UniProt P41143). Type of test: binding.
For test [2], the target named is MOR (Mus musculus, UniProt P42866). Description: MOR [35S]GTPγS functional assay, MOR-CHO membranes. The format is biochemical. The note with it: for Emax: read-out: MOR [35S]GTPγS Emax, relative to maximal stimulation produced by DAMGO; for MOR [35S]GTPγS Emax: relative to maximal stimulation produced by DAMGO. In general terms: GTPγS resists hydrolysis and so accumulates on activated G proteins.

Test [3] deals with MOR. The format is binding. The settings on record: for Selectivity D/M: ratio Ki DOR / Ki MOR; for Selectivity K/M: ratio Ki KOR / Ki MOR.
In test [4] the test system is Swiss Webster mice. The experiment in a line: Warm-water tail immersion assay, agonism. The note with it: single dose 10 mg kg^−1 s.c., 20 min after injection.

As usually defined, the Ki is a measure of affinity in units of concentration, obtained from inhibition or displacement. A high value points to weaker binding. As a reminder, the EC50 is the concentration that produces a half-maximal response. One may read the Emax as the greatest response seen or fitted, relative to the assay's reference. For the compound `O=C(N[C@@H]1CC[C@@]2(O)[C@H]3Cc4ccc(O)c5c4[C@@]2(CCN3CC2CC2)[C@H]1O5)c1cccc2c(-c3ccncc3)coc12` [Compound 12, N-((4R,4aS,7R,7aR,12bS)-3-(Cyclopropylmethyl)-4a,9-dihydroxy-2,3,4,4a,5,6,7,7a-octahydro-1H-4,12-methanobenzofuro[3,2-e]isoquinolin-7-yl)-3-(pyridin-4-yl)benzofuran-7-carboxamide], the “ability to reverse the antinociceptive effects of morphine” value in the test with Swiss Webster mice [1] is “considerable antagonism activity”. Moreover, on KOR, the Ki was found to be 0.00734 ± 0.00095 µM. The compound also registered an inhibition constant (Ki) at DOR of 0.045 ± 0.0093 µM. On MOR [2], the EC50 stood at 0.0012 ± 0.00038 µM and the Emax was roughly 10%. In the test with MOR [3], the “Selectivity D/M” value is reported as 213 and the “Selectivity K/M” value is listed as 35.
`Cl.O=C(N[C@@H]1CC[C@@]2(O)[C@H]3Cc4ccc(O)c5c4[C@@]2(CCN3CC2CC2)[C@H]1O5)c1cccc2c(Br)coc12` [Compound 8, 3-Bromo-N-((4R,4aS,7R,7aR,12bS)-3-(cyclopropylmethyl)-4a,9-dihydroxy-2,3,4,4a,5,6,7,7a-octahydro-1H-4,12-methanobenzofuro[3,2-e]isoquinolin-7-yl)benzofuran-7-carboxamide hydrochloride]: the affinity at KOR corresponds to a Ki of 0.00021 ± 1e-05 µM. Moreover, in the test with Swiss Webster mice [4], the “%MPE (antinociception)” value was found to be 90.9%. At DOR, this compound displayed a Ki of 0.00534 ± 0.00099 µM. In addition, at MOR [2], a half-maximal response (EC50) required 0.00049 ± 8e-05 µM and the “MOR [35S]GTPγS Emax” value was 42.9 ± 3.9%. In the test with MOR [3], the “Selectivity D/M” value is listed as 27 and the “Selectivity K/M” value was 1.0.
Compound `Cc1coc2c(C(=O)N[C@@H]3CC[C@@]4(O)[C@H]5Cc6ccc(O)c7c6[C@@]4(CCN5CC4CC4)[C@H]3O7)cccc12` [Compound 10, N-((4R,4aS,7R,7aR,12bS)-3-(Cyclopropylmethyl)-4a,9-dihydroxy-2,3,4,4a,5,6,7,7a-octahydro-1H-4,12-methanobenzofuro[3,2-e]isoquinolin-7-yl)-3-methylbenzofuran-7-carboxamide] gave an inhibitory constant (Ki) at KOR of 0.00044 ± 8e-05 µM. The “%MPE (antinociception)” value in the test with Swiss Webster mice [4] is 54.2%. On DOR, this compound returned a Ki of 0.0131 ± 0.0011 µM. On MOR [2], the concentration giving a half-maximal response (EC50) was found to be 0.00081 ± 0.00014 µM and the Emax was determined as 32.7 ± 3.3%. Moreover, in the test on MOR [3], the “Selectivity D/M” value was found to be 57 and the “Selectivity K/M” value came out at 1.9.
In turn, `Cl.O=C(N[C@H]1CC[C@@]2(O)[C@H]3Cc4ccc(O)c5c4[C@@]2(CCN3CC2CC2)[C@H]1O5)c1cccc2c(Br)coc12` [Compound 2, 3-Bromo-N-((4R,4aS,7S,7aR,12bS)-3-(cyclopropylmethyl)-4a,9-dihydroxy-2,3,4,4a,5,6,7,7a-octahydro-1H-4,12-methanobenzofuro[3,2-e]isoquinolin-7-yl)benzofuran-7-carboxamide hydrochloride] came in with a Ki at KOR of 0.0173 ± 0.0012 µM. Moreover, on DOR, the Ki was found to be 0.0878 ± 0.0055 µM. Besides, on MOR [2], the midpoint of the response, the EC50, lay at 0.00737 ± 0.00232 µM and the “MOR [35S]GTPγS Emax” value turned out to be 16.0 ± 4.0%. Further, in the test on MOR [3], the “Selectivity D/M” value was determined as 154 and the “Selectivity K/M” value turned out to be 30.
In the case of `O=C(N[C@@H]1CC[C@@]2(O)[C@H]3Cc4ccc(O)c5c4[C@@]2(CCN3CC2CC2)[C@H]1O5)c1cccc2c(-c3ccccc3)coc12` [Compound 11, N-((4R,4aS,7R,7aR,12bS)-3-(Cyclopropylmethyl)-4a,9-dihydroxy-2,3,4,4a,5,6,7,7a-octahydro-1H-4,12-methanobenzofuro[3,2-e]isoquinolin-7-yl)-3-phenylbenzofuran-7-carboxamide], the “ability to reverse the antinociceptive effects of morphine” value with Swiss Webster mice [1] was “considerable antagonism activity”. On KOR, this compound came in with a Ki of 0.0197 ± 0.0022 µM. Also, the inhibitory constant (Ki) at DOR is 0.0221 ± 0.0032 µM. In addition, at MOR [2], it took 0.00056 ± 7e-05 µM to reach a half-maximal effect (EC50) and the maximum response (Emax) was roughly 10%. In the test on MOR [3], the “Selectivity D/M” value came out at 123 and the “Selectivity K/M” value was determined as 110.
The compound `O=C(N[C@H]1CC[C@@]2(O)[C@H]3Cc4ccc(O)c5c4[C@@]2(CCN3CC2CC2)[C@H]1O5)c1cccc2c(-c3ccncc3)coc12` [Compound 6, N-((4R,4aS,7S,7aR,12bS)-3-(Cyclopropylmethyl)-4a,9-dihydroxy-2,3,4,4a,5,6,7,7a-octahydro-1H-4,12-methanobenzofuro[3,2-e]isoquinolin-7-yl)-3-(pyridin-4-yl)benzofuran-7-carboxamide] registered a Ki on KOR of 0.0087 ± 0.0015 µM. Further, the Ki at DOR turned out to be 0.0977 ± 0.0163 µM. For the same compound, on MOR [2], the EC50 was found to be 0.012 ± 0.0021 µM and the Emax was found to be 14.8 ± 1.6%. In the test with MOR [3], the “Selectivity D/M” value is 41 and the “Selectivity K/M” value is listed as 3.7.
`Cc1coc2c(C(=O)N[C@H]3CC[C@@]4(O)[C@H]5Cc6ccc(O)c7c6[C@@]4(CCN5CC4CC4)[C@H]3O7)cccc12` [Compound 4, N-((4R,4aS,7S,7aR,12bS)-3-(Cyclopropylmethyl)-4a,9-dihydroxy-2,3,4,4a,5,6,7,7a-octahydro-1H-4,12-methanobenzofuro[3,2-e]isoquinolin-7-yl)-3-methylbenzofuran-7-carboxamide] came in with a Ki on KOR of 0.0157 ± 0.0013 µM. This compound displayed an inhibition constant (Ki) at DOR of 0.087 ± 0.0053 µM. For the same compound, at MOR [2], the EC50 came to 0.00452 ± 0.00039 µM and the Emax is 23.5 ± 1.6%. In the test on MOR [3], the “Selectivity D/M” value is 130 and the “Selectivity K/M” value is 23.
Turning to `O=C(N[C@H]1CC[C@@]2(O)[C@H]3Cc4ccc(O)c5c4[C@@]2(CCN3CC2CC2)[C@H]1O5)c1cccc2c(Cl)coc12` [Compound 3, 3-Chloro-N-((4R,4aS,7S,7aR,12bS)-3-(cyclopropylmethyl)-4a,9-dihydroxy-2,3,4,4a,5,6,7,7a-octahydro-1H-4,12-methanobenzofuro[3,2-e]isoquinolin-7-yl)benzofuran-7-carboxamide], the Ki at KOR was found to be 0.0171 ± 0.0013 µM. For the same compound, at DOR, the Ki amounted to 0.138 ± 0.024 µM. In addition, at MOR [2], a half-maximal response (EC50) required 0.00265 ± 0.00047 µM and the Emax turned out to be 21.6 ± 0.8%. Further, in the test with MOR [3], the “Selectivity D/M” value is on record as 277 and the “Selectivity K/M” value stood at 34.
Take `O=C(N[C@H]1CC[C@@]2(O)[C@H]3Cc4ccc(O)c5c4[C@@]2(CCN3CC2CC2)[C@H]1O5)c1cccc2c(-c3ccccc3)coc12` [Compound 5, N-((4R,4aS,7S,7aR,12bS)-3-(Cyclopropylmethyl)-4a,9-dihydroxy-2,3,4,4a,5,6,7,7a-octahydro-1H-4,12-methanobenzofuro[3,2-e]isoquinolin-7-yl)-3-phenylbenzofuran-7-carboxamide]: on KOR, the Ki amounted to 0.0338 ± 0.0056 µM. For the same compound, affinity at DOR was put at a Ki of 0.238 ± 0.028 µM. At MOR [2], a half-maximal effect (EC50) was put at 0.0274 ± 0.005 µM and the Emax is 17.3 ± 1%. Besides, in the test on MOR [3], the “Selectivity D/M” value came out at 173 and the “Selectivity K/M” value turned out to be 24.
The compound `O=C(N[C@@H]1CC[C@@]2(O)[C@H]3Cc4ccc(O)c5c4[C@@]2(CCN3CC2CC2)[C@H]1O5)c1cccc2c(Cl)coc12` [Compound 9, 3-Chloro-N-((4R,4aS,7R,7aR,12bS)-3-(cyclopropylmethyl)-4a,9-dihydroxy-2,3,4,4a,5,6,7,7a-octahydro-1H-4,12-methanobenzofuro[3,2-e]isoquinolin-7-yl)benzofuran-7-carboxamide] registered a Ki on KOR of 0.00016 ± 2e-05 µM. Moreover, the “%MPE (antinociception)” value in the test with Swiss Webster mice [4] is given as 84.5%. Besides, affinity at DOR was put at a Ki of 0.00517 ± 0.00113 µM. Further, at MOR [2], the concentration for a half-maximal effect (EC50) turned out to be 0.00035 ± 7e-05 µM and the Emax stood at 51.2 ± 3.4%. In the test with MOR [3], the “Selectivity D/M” value is 37 and the “Selectivity K/M” value was determined as 1.1.
